Measurements published in patent US20220072089A1, “CANCER THERAPEUTIC COMPOSITIONS AND METHODS” (University of Vermont and State Agricultural College, priority 2018, published 2022).
Read-outs that look alike come from different tables or passages of the source.

How the values were obtained:
[1] = tested on: Malignant mesothelioma (MM) cells; test: Malignant mesothelioma cell viability (cell number), Example 1; type: cell-based; conditions: Homo sapiens
Procedure: Malignant mesothelioma (MM) cells were incubated with increasing concentrations of TS (0-10 μM) and TLK-199 (0-200 μM) for 48 hours and then assayed for cell number (viability).

[2] = tested on: patients with myelodysplatic syndrome; conditions: 50-600 mg/m^2 IV over 60 minutes; cited from earlier work
MM cells = test: Combinations administered to subjects with malignant mesothelioma, Example 8; type: in vivo
Procedure: Subjects with malignant mesothelioma (MM) are administered (1) thiostrepton (TS) and TLK-199, (2) TS, gentian violet (GV), and TLK or (3) GV and TLK-199.

peroxiredoxin 3 (PRX3) = molecular target: T1, peroxiredoxin 3 (PRX3) (Homo sapiens, UniProt P30048); test: Covalent adduction of PRX3 in MM cells (reducing SDS-PAGE, western blot), Example 7; type: cell-based; conditions: 0, 2, 4 μM TS alone or with 30 μM TLK-199, 24 hours, FIG. 4
T1 construct: endogenous in cells
T1 sequence (P30048 62-256): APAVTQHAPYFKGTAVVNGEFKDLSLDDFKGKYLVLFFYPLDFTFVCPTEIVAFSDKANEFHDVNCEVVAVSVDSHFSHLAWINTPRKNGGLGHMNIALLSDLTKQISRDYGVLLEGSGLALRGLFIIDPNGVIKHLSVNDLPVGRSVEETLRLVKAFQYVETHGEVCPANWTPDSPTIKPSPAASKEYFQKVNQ
Procedure: Malignant mesothelioma (MM) cells were incubated with 0, 2,and 4 μM Thiostrepton (TS) alone or in the presence of 30 μM TLK-199 for 24 hours. Cell lysates were collected, and proteins were separated by reducing SDS-Polyacrylamide Gel Electrophoresis.

[3] = single agent, malignant mesothelioma cells, 48 hours, read-out: inhibitory concentration required to kill 50% of cells (IC50)

SMILES | IC50 [1, 3] [nM] | bone marrow maturation and cellularity [2] | clinical symptoms [2] | transfusion requirements [2] | effect of including TLK-199 on reduction in viability of MM cells (MM cells) | IC50 ([1]; 48 h, read-out: inhibitory concentration required to kill 50% of cells (IC50)) [nM] | IC50 ([1]; read-out: calculated IC50) [nM] | covalent adduction of PRX3 (PRX3 dimer:monomer ratio) (peroxiredoxin 3 (PRX3))
CN(C)c1ccc(C(=C2C=CC(=[N+](C)C)C=C2)c2ccc(N(C)C)cc2)cc1 [GV, Gentian violet] | 150 | – | – | – | – | – | – | –
CCOC(=O)[C@@H](NC(=O)[C@H](CSCc1ccccc1)NC(=O)CC[C@H](N)C(=O)OCC)c1ccccc1 [TLK-199, (S)-ethyl 2-amino-5-(((R)-3-(benzylthio)-1-(((S)-2-ethoxy-2-oxo-1-phenylethyl)amino)-1-oxopropan-2-yl)amino)-5-oxopentanoate] | 45000 | Improvement in bone marrow maturation and cellularity | improvement in clinical symptoms | reductions in transfusion requirements | synergistic effect | – | – | –
C=C(NC(=O)C(=C)NC(=O)c1csc(C2=N[C@@H]3c4csc(n4)[C@H]4NC(=O)c5csc(n5)[C@H]([C@](C)(O)[C@@H](C)O)NC(=O)[C@H]5CSC(=N5)/C(=C/C)NC(=O)[C@H]([C@@H](C)O)NC(=O)c5csc(n5)[C@]3(CC2)NC(=O)[C@H](C)NC(=O)C(=C)NC(=O)[C@H](C)NC(=O)[C@H]([C@@H](C)CC)N[C@@H]2C=Cc3c([C@H](C)O)cc(nc3[C@H]2O)C(=O)O[C@@H]4C)n1)C(N)=O [TS, Thiostrepton] | – | – | – | – | – | ~1500 | 900 to 2400 | PRX3 monomers were covalently crosslinked
